Data as given in article PMC8739347 (Tropical Medicine and Health, 2022).

Experiments:
Test in all cases: Antiviral activity assay in Vero E6 cells, qRT-PCR of supernatant
Format in all cases: cell-based
[1] = system: SARS-CoV-2 Delta variant (hCoV-19/Japan/TY11-330-P1//2021); details: for IC50: Severe acute respiratory syndrome coronavirus 2, Vero C1008, Delta, compound concentration (for 5-ALA/SFC the 5-ALA concentration, ratio 4:1)
[2] = system: SARS-CoV-2 Alpha variant (hCoV-19/Japan/QK002/2020); details: Severe acute respiratory syndrome coronavirus 2, Vero C1008, compound concentration (for 5-ALA/SFC the 5-ALA concentration, ratio 4:1)
[3] = system: SARS-CoV-2 Gamma variant (hCoV-19/Japan/TY7-501/2020); details: for IC50: Severe acute respiratory syndrome coronavirus 2, Vero C1008, Gamma, compound concentration (for 5-ALA/SFC the 5-ALA concentration, ratio 4:1)
[4] = system: SARS-CoV-2 Beta variant (hCoV-19/Japan/TY8-612/2020); details: Severe acute respiratory syndrome coronavirus 2, Vero C1008, compound concentration (for 5-ALA/SFC the 5-ALA concentration, ratio 4:1)

Structure (SMILES)	viral inhibition [1]	IC50 [1] [µM]	IC50 [2] [µM]	viral inhibition [3]	IC50 [3] [µM]	IC50 [4] [µM]
NCC(=O)CCC(=O)O [5-ALA, 5-aminolevulinic acid]	little viral inhibition	> 2000	104	no viral inhibition	> 2000	1590
CCC(CC)COC(=O)[C@H](C)N[P@](=O)(OC[C@H]1O[C@@](C#N)(c2ccc3c(N)ncnn23)[C@H](O)[C@@H]1O)Oc1ccccc1 [remdesivir, Remdesivir]		0.1 to 1	0.1 to 1		0.1 to 1	0.1 to 1
